Results from article PMC12956279 (2026).

What was measured:
Assay in all cases: fluorescence titration (light-up), quadratic fit
Settings in all cases: 100 mM KCl, 1 mM MgCl2; 40 mM HEPES pH 7.4 (7.5 in Results), room temperature; 1 µM dye, DNA varied
[1] = system: FLE (FLE-v4) (DNA, aptamer) TCCTTCGCACAGCACACCTGCCGTATAGCTCTGAATCAAGGATTTTAGGGAGGCGATAACGTGCTCAAGGTGTCTTAGTAGGGATGATGCGGCAGTGGGCTTCGCAGAACAGTGTTTATTCTGCGAGGGGACTAAGACTCCTTCAGCAAGTTAAGCTCCTCCTGCC
[2] = system: 4LE-v4 (DNA, aptamer) TCCTTCGCACAGCACACCTGCCGTATAGCTCTGAATCAAGGATTTTAGGGAGGCGATTAGTAGGGATGATGCGGCAGTGGGCTTCGCAGAACAGTGTTTATTCTGCGAGGGGACTATCCTCCTGCC
[3] = system: 11LE (11LE-v4) (DNA, aptamer) TCCTTCGCACAGCACACCTGCCGTATAGCTCTGAATCAAGGATTTTAGGGAGGCGATGGTGTCTTAGTAGGGATGATGCGGCAGTGGGCTTCGCAGAACAGTGTTTATTCTGCGAGGGGACTAAGACTCCTCCTCCTGCC
[4] = system: 8LE-v4 (DNA, aptamer) TCCTTCGCACAGCACACCTGCCGTATAGCTCTGAATCAAGGATTTTAGGGAGGCGATGTCTTAGTAGGGATGATGCGGCAGTGGGCTTCGCAGAACAGTGTTTATTCTGCGAGGGGACTAAGACTCCTCCTGCC

SMILES: CC1=N/C(=C\c2cc(F)c(O)c(F)c2)C(=O)N1CC(F)(F)F
- KD [1]: 0.07 (0.01, 0.16, 95% CI) µM
- KD [2]: 6 (4.93, 7.18, 95% CI) µM
- KD [3]: 0.01 (0.01, 0.07, 95% CI) µM
- KD [4]: 0.04 (0.01, 0.12, 95% CI) µM
